This is an account of results in publication PMC5673977, “Transport Deficiency Is the Molecular Basis of Candida albicans Resistance to Antifungal Oligopeptides” (Frontiers in Microbiology, 2017).

Where a SMILES comes first, the peptide text is derived from it. [ ]: non-standard residue; d: D form. Nva = CCC[C@H](N)C(=O)O

The subject of one data set is C. albicans SC5314. In words: Initial peptide uptake rate. The settings on record: SC 5314; cells grown in YNB-SG; 50 mM potassium phosphate buffer (pH 5.0 or 6.5) + 1% glucose, 30°C, 100 μM peptide, residual peptide by TNBS A420, slope 0- to 10-min. It counts as cell-based, Candida albicans. On the procedure: (§1) Yeast cells grown exponentially in the YNB-SG medium were harvested by centrifugation (3000 ×g, 5 min), washed with 50 mM potassium phosphate buffer (pH 5.0 or 6.5), and suspended in the same buffer containing 1% glucose, to a final cell density corresponding to A660 ≅ 1.0. The cell suspension was incubated at 30°C. After 10 min, an oligopeptide solution was added, to give a final concentration of 100 μM. At that moment and at 5 min intervals thereafter, 2 mL samples of the cell suspension were withdrawn, immediately filtered through the Whatman GF/A filters and the filtrates were used to determine the residual peptide concentration. Then, the 1 mL portions of the filtrates were taken and combined with 1.25 mL aliquots of a solution containing 4% Na2B4O7 × 10 H2O and 0.8 mg mL^-1 of 2,4,6-trinitrobenzenesulfonate. The reaction was carried out at 37°C for 30 min. The A420 values were measured and the peptide concentration was read from the appropriate standard curve. Data were plotted as nanomoles of an oligopeptide, taken up by 1 mg (dry weight) of cells versus time. The initial uptake velocities were determined from the slopes of the linear part of the curves, in the 0- to 10-min region.

The test system of a further data set is C. albicans opt1Δ. Put plainly: Initial peptide uptake rate. The note with it: 50 mM potassium phosphate buffer (pH 5.0 or 6.5) + 1% glucose, 30°C, 100 μM peptide, TNBS A420, slope 0- to 10-min. Format: cell-based, Candida albicans. On the procedure: as §1
Data set [1] has as its system C. albicans opt1–opt5Δ ptr2Δ ptr22Δ. Put plainly: Initial peptide uptake rate. Format: cell-based, Candida albicans. The settings on record: 50 mM potassium phosphate buffer (pH 5.0 or 6.5) + 1% glucose, 30°C, 100 μM peptide, TNBS A420, slope 0- to 10-min. As to the method: as §1
For the next data set, the system named is C. albicans opt1–opt5Δ. Put plainly: Initial peptide uptake rate. It counts as cell-based, Candida albicans. The settings on record: 50 mM potassium phosphate buffer (pH 5.0 or 6.5) + 1% glucose, 30°C, 100 μM peptide, TNBS A420, slope 0- to 10-min. On the procedure:
as §1

Another data set concerns C. albicans opt2Δ opt3Δ. In words: Initial peptide uptake rate. Format: cell-based, Candida albicans. The note with it: 50 mM potassium phosphate buffer (pH 5.0 or 6.5) + 1% glucose, 30°C, 100 μM peptide, TNBS A420, slope 0- to 10-min. As to the method: as §1
The subject of the next data set is C. albicans opt4Δ. Put plainly: Initial peptide uptake rate. It counts as cell-based, Candida albicans. The note with it: 50 mM potassium phosphate buffer (pH 5.0 or 6.5) + 1% glucose, 30°C, 100 μM peptide, TNBS A420, slope 0- to 10-min. As to the method: as §1
The next data set deals with C. albicans opt5Δ. Put plainly: Initial peptide uptake rate. Format: cell-based, Candida albicans. The note with it: 50 mM potassium phosphate buffer (pH 5.0 or 6.5) + 1% glucose, 30°C, 100 μM peptide, TNBS A420, slope 0- to 10-min. On the procedure:
as §1

In a further data set the test system is C. albicans ptr2Δ ptr22Δ. In words: Initial peptide uptake rate. It counts as cell-based, Candida albicans. The settings on record: 50 mM potassium phosphate buffer (pH 5.0 or 6.5) + 1% glucose, 30°C, 100 μM peptide, TNBS A420, slope 0- to 10-min. On the procedure:
as §1

Data set [2] concerns peptidases present in cytoplasmic extracts obtained from NF1, NF2, NF3, LNF1, LNF2, LNF3, and SC 5314 cells. Put plainly: Peptide cleavage rate in cell-free extract (Cd-ninhydrin). It counts as in vitro ADME, Candida albicans. The note with it: pH 6.5, 30°C. On the procedure: Yeast cells from the overnight culture in YNB-SG were harvested by centrifugation and washed with cold 25 mM potassium phosphate buffer (pH 6.5). Cells were then suspended in a minimal amount of the buffer and disrupted with the French press. The resulting suspension was centrifuged (35,000 ×g, 4°C, 45 min), and the supernatant was used as a cell-free extract for the determination of peptide cleavage rates.
The incubation mixtures, consisting of 10 mL of a 200 mM peptide solution in 50 mM potassium phosphate buffer (pH 6.5) and 2 mL of an appropriately diluted crude extract (final protein concentration, 0.1–0.5 mg mL^-1), were incubated at 30°C. At 5 min intervals, 2 mL aliquots were withdrawn and heated at 100°C for 3 min. The resulting suspensions were centrifuged to remove the protein precipitates and the concentration of free amino acids in the supernatant was determined by the Cd-ninhydrin procedure ([Doi et al., 1981]).

Data set [3] relates to C. albicans isolates NF1-3 and LNF1-3. Put plainly: Initial peptide uptake rate by isolates resistant to F2/F3. The note with it: all six isolates NF1-3, LNF1-3; Figure 4. Format: cell-based, Candida albicans. On the procedure: as §1
It is therefore clear that the diminished sensitivity of all six isolates to F2 and F3 was due to the reduced uptake, most likely by permease(s) of the PTR system.

Take `CCC[C@H](N)C(=O)N[C@@H](Cc1ccccc1)C(=O)N[C@@H](CCSC)C(=O)N[C@@H](CC(=O)O)C(=O)N1CCC[C@H]1C(=O)O` [Peptide F2, Nva-FMDP] (H-[Nva]FMDP-OH): the “Uptake rate ± SD” value in the data set with C. albicans SC5314 is reported as 4.83 ± 0.11 nmol min^-1 (mg dry weight)^-1; with C. albicans opt1Δ, 4.75 ± 0.09 nmol min^-1 (mg dry weight)^-1; in [1], <0.1 nmol min^-1 (mg dry weight)^-1; with C. albicans opt1–opt5Δ, 4.05 ± 0.18 nmol min^-1 (mg dry weight)^-1; with C. albicans opt2Δ opt3Δ, 4.80 ± 0.15 nmol min^-1 (mg dry weight)^-1; with C. albicans opt4Δ, 4.86 ± 0.14 nmol min^-1 (mg dry weight)^-1. For the same compound, the “Uptake rate ± SD” value is 4.78 ± 0.11 nmol min^-1 (mg dry weight)^-1 with C. albicans opt5Δ and <0.1 nmol min^-1 (mg dry weight)^-1 in the data set with C. albicans ptr2Δ ptr22Δ. For the same compound, the “Velocity of proteolytic cleavage relative to F6, F7, and F11” value in data set [2] was “two to three times higher”. In addition, the “Initial uptake rate relative to wild type SC5314 cells” value in [3] is reported as “remarkably lower”.
Consider Ala-Ala [(Ala)2, reference compound], for which the “Uptake rate ± SD” value was 5.12 ± 0.32 nmol min^-1 (mg dry weight)^-1 in the data set on C. albicans SC5314; 4.50 ± 0.36 nmol min^-1 (mg dry weight)^-1 in the data set with C. albicans opt1Δ; <0.1 nmol min^-1 (mg dry weight)^-1 in [1]; 5.88 ± 0.40 nmol min^-1 (mg dry weight)^-1 in the data set on C. albicans opt1–opt5Δ; 3.96 ± 0.29 nmol min^-1 (mg dry weight)^-1 with C. albicans opt2Δ opt3Δ; 4.83 ± 0.31 nmol min^-1 (mg dry weight)^-1 in the data set with C. albicans opt4Δ. Also, the “Uptake rate ± SD” value is listed as 5.00 ± 0.38 nmol min^-1 (mg dry weight)^-1 in the data set on C. albicans opt5Δ and <0.1 nmol min^-1 (mg dry weight)^-1 in the data set with C. albicans ptr2Δ ptr22Δ. In data set [3], the “Initial uptake rate relative to wild type SC5314 cells” value is reported as “remarkably lower”.
`CCC[C@H](NC(=O)[C@@H](N)CCCCN)C(=O)N[C@@H](Cc1ccccc1)C(=O)N[C@@H](CCSC)C(=O)N[C@@H](CC(=O)O)C(=O)N1CCC[C@H]1C(=O)O` [Peptide F3, Lys-Nva-FMDP] (H-K[Nva]FMDP-OH): the “Uptake rate ± SD” value is given as 4.32 ± 0.14 nmol min^-1 (mg dry weight)^-1 in the data set on C. albicans SC5314; 4.08 ± 0.14 nmol min^-1 (mg dry weight)^-1 in the data set with C. albicans opt1Δ; <0.1 nmol min^-1 (mg dry weight)^-1 in data set [1]; 2.98 ± 0.18 nmol min^-1 (mg dry weight)^-1 in the data set on C. albicans opt1–opt5Δ; 3.23 ± 0.19 nmol min^-1 (mg dry weight)^-1 with C. albicans opt2Δ opt3Δ; 4.12 ± 0.15 nmol min^-1 (mg dry weight)^-1 in the data set on C. albicans opt4Δ. Further, the results for the “Uptake rate ± SD” value in the data set with C. albicans opt5Δ and with C. albicans ptr2Δ ptr22Δ were 4.19 ± 0.16 nmol min^-1 (mg dry weight)^-1 and 0.11 ± 0.04 nmol min^-1 (mg dry weight)^-1, respectively. For the same compound, the “Velocity of proteolytic cleavage relative to F6, F7, and F11” value in [2] is “two to three times higher”. Further, in data set [3], the “Initial uptake rate relative to wild type SC5314 cells” value is recorded as “lower”.
